Experiment [1] addresses hNurr1_RXRγFL (NURR1/RXRγ heterodimer) (Homo sapiens, UniProt P43354+P48443). Description: Transactivation assay in Cos-7 cells, NURR-1-Gal4 / RXRγ, luciferase reporter. The experiment is classed as cell-based. The note with it: for Emax: COS-7, read-out: hNurr1_RXRγFL Eff (%), efficacy in % relative to the reference XCT0135908 at 2·10^−5 M (=100%); for EC50: Cos-7 cells, overnight incubation. The procedure, abridged:
(§1)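 Cos-7 cells co-transfected with human NURR-1-Gal4 chimera, human RXRα or RXRγ, and 5Gal4pGL3-TK-Luc reporter; compounds added at 10^−4 to 3·10^−10 M final, overnight incubation, luciferase read. Induction over each heterodimer's baseline expressed as % of reference RXR agonist XCT0135908 (2·10^−5 M) taken as 100%.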
In general terms: A reporter such as luciferase makes a cellular process visible.

Experiment [2] deals with hNurr1_RXRαFL (NURR1/RXRα heterodimer) (Homo sapiens, UniProt P19793+P43354). Briefly: Transactivation assay in Cos-7 cells, NURR-1-Gal4 / RXRα, luciferase reporter. The note with it: for Emax: COS-7, read-out: hNurr1_RXRαFL Eff (%), efficacy in % relative to the reference XCT0135908 at 2·10^−5 M (=100%); for EC50: Cos-7 cells, overnight incubation. It is filed as cell-based. In short, it runs like this: as §1
Chain of hNurr1_RXRαFL (NURR1/RXRα heterodimer) (P19793 whole entry, the tested form may be a part): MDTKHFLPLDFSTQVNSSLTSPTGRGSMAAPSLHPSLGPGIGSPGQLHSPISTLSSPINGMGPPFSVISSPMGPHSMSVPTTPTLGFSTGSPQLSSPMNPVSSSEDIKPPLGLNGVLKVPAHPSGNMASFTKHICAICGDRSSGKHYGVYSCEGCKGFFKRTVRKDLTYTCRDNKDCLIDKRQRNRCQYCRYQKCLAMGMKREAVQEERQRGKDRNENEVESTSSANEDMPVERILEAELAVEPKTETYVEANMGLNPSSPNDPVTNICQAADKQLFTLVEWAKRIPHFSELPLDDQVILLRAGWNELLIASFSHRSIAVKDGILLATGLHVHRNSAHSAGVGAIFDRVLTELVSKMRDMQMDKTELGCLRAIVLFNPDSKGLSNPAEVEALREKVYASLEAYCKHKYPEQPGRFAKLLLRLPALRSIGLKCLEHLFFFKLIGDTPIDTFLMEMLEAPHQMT
Chain of hNurr1_RXRαFL (NURR1/RXRα heterodimer) (P43354 328-598): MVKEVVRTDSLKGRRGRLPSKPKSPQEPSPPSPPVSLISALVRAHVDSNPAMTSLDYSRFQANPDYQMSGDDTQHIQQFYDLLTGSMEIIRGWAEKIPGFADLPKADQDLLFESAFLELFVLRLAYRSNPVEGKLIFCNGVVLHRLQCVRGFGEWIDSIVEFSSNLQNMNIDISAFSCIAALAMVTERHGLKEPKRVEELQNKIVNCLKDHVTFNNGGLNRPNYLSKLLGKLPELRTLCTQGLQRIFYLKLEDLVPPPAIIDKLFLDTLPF

SMILES strings stand for the structures.

For 9 compounds, Emax and EC50 results are on record in patent US20120232070A1, “Use of Indole Derivatives as Nurr-1 Activators for the Application Thereof as a Medicament for the Treatment of Parkinson's Disease” (Laboratoires Fournier SA, priority 2009, published 2012).

Chain of hNurr1_RXRγFL (NURR1/RXRγ heterodimer) (P43354 328-598): as above
Chain of hNurr1_RXRγFL (NURR1/RXRγ heterodimer) (P48443 whole entry, the tested form may be a part): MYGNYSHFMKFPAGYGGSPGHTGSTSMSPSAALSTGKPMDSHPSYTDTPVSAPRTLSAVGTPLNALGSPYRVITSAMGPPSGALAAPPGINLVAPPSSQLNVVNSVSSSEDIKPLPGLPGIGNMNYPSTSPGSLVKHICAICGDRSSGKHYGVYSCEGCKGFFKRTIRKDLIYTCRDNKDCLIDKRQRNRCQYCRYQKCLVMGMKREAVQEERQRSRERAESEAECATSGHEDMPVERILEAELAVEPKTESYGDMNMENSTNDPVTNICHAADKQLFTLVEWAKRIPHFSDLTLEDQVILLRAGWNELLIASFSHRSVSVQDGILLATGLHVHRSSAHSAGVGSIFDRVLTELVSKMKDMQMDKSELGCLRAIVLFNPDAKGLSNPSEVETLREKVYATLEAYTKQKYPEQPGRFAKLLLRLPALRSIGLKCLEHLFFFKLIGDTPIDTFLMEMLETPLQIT

As usually defined, the EC50 is the concentration needed to bring the measured effect to its halfway point. Turning to `O=C(O)c1ccc(Cc2cc3cc(C(F)(F)F)ccc3n2S(=O)(=O)c2cc3ccccc3o2)cc1` [Example 122, 4-[[1-[benzofuran-2-sulfonyl]-5-(trifluoromethyl)-1H-indol-2-yl]methyl]benzoic acid], in experiment [1], the Emax was found to be 54% and the EC50 was found to be 680 nM. Further, in experiment [2], the Emax was 62% and the EC50 was determined as 353 nM.

In the case of `CCCOc1ccc(S(=O)(=O)n2c(Cc3ccc(C(=O)O)cc3)cc3cc(C(F)(F)F)ccc32)cc1` [Example 123, 4-[[1-[4-propoxy-phenylsulfonyl]-5-(trifluoromethyl)-1H-indol-2-yl]methyl]benzoic acid], the values for the Emax in experiment [1] and in experiment [2] were 36% and 60%, respectively. For the same compound, the EC50 was 646 nM in experiment [1] and 217 nM in experiment [2].

For `O=C(O)c1ccc(Cc2cc3cc(C(F)(F)F)ccc3n2S(=O)(=O)c2ccc(OC(F)F)c(Cl)c2)cc1` [Example 124, 4-[[1-[3-chloro-4-difluoromethoxy-phenylsulfonyl]-5-(trifluoromethyl)-1H-indol-2-yl]methyl]benzoic acid], in experiment [1], the Emax was 44% and it took 697 nM to reach a half-maximal effect (EC50). Also, in experiment [2], the Emax is 59% and it took 349 nM to reach a half-maximal effect (EC50).

For the compound `CN1C(=O)COc2ccc(S(=O)(=O)n3c(Cc4ccc(C(=O)O)cc4)cc4cc(C(F)(F)F)ccc43)cc21` [Example 125, 4-[[1-[4-methyl-3-oxo-3,4-dihydro-2H-benzo[1,4]oxazine-6-sulfonyl]-5-(trifluoromethyl)-1H-indol-2-yl]methyl]benzoic acid], in experiment [1], the Emax is 101% and the EC50 was 724 nM. Moreover, in experiment [2], the Emax was found to be 61% and the half-maximal effective concentration (EC50) was determined as 808 nM.

`O=C(O)c1ccc(Cc2cc3cc(C(F)(F)F)ccc3n2S(=O)(=O)c2cccc(SC(F)F)c2)cc1` [Example 126, 4-[[1-[3-difluoromethylsulfanyl-phenylsulfonyl]-5-(trifluoromethyl)-1H-indol-2-yl]methyl]benzoic acid]: in experiment [1], the Emax was 32% and the midpoint of the response, the EC50, lay at 141 nM. In experiment [2], the Emax came to 44% and the midpoint of the response, the EC50, lay at 122 nM.

For `CC(C)COc1ccc(S(=O)(=O)n2c(Cc3ccc(C(=O)O)cc3)cc3cc(C(F)(F)F)ccc32)cc1` [Example 127, 4-[[1-[4-isobutoxy-phenylsulfonyl]-5-(trifluoromethyl)-1H-indol-2-yl]methyl]benzoic acid], in experiment [1], the Emax turned out to be 45% and it took 575 nM to reach a half-maximal effect (EC50). In experiment [2], the Emax worked out at 48% and the concentration giving a half-maximal response (EC50) was 263 nM.

With `CC(C)CCc1ccc(S(=O)(=O)n2c(Cc3ccc(C(=O)O)cc3)cc3cc(C(F)(F)F)ccc32)cc1` [Example 128, 4-[[1-[4-(3-methyl-butyl)-phenylsulfonyl]-5-(trifluoromethyl)-1H-indol-2-yl]methyl]benzoic acid], in experiment [1], the Emax came to 36% and the EC50 came out at 1590 nM. For the same compound, in experiment [2], the Emax worked out at 44% and the EC50 worked out at 337 nM.

With `O=C(O)c1ccc(Cc2cc3cc(C(F)(F)F)ccc3n2S(=O)(=O)c2ccc(Oc3ccccc3)nc2)cc1` [Example 130, 4-[[1-[(6-phenoxy-3-pyridinyl)sulfonyl]-5-(trifluoromethyl)-1H-indol-2-yl]methyl]benzoic acid], in experiment [1], the Emax was 22% and the EC50 turned out to be 1700 nM. Besides, in experiment [2], the Emax was determined as 30% and the EC50 came to 347 nM.

In the case of `Cc1cc(C)n(-c2ccc(S(=O)(=O)n3c(Cc4ccc(C(=O)O)cc4)cc4cc(C(F)(F)F)ccc43)cc2)n1` [Example 131, 4-[[1-[4-(3,5-dimethyl-pyrazol-1-yl)-phenylsulfonyl]-5-(trifluoromethyl)-1H-indol-2-yl]methyl]benzoic acid], in experiment [1], the Emax stood at 21% and the EC50 stood at 1480 nM. Moreover, in experiment [2], the Emax stood at 30% and the EC50 was 603 nM.
